Data reported in US7582638B2, “Pyrazole-isoquinoline urea derivatives as p38 kinase inhibitors” (Eli Lilly and Company, priority 2005, dated 2009).

Tests used:
TNFα [1] = assay: Effect on intra-articular LPS induced TNFα (synovial lavage fluid); type: in vivo; conditions: female Lewis rats, oral, intra-articular LPS 10 μg one hour later, lavage after two hours
Method: Intra-articular injection of LPS into rat ankles induces the synthesis of TNFα, which can be measured in synovial lavage fluid. High levels of TNFα are detectable within 2 hours. Since the joint is the site where arthritis develops, this model can rapidly determine whether an orally administered compound has an effect on an inflammatory response in the synovium.
Six female Lewis rats (150-200 g) are place in each treatment group. The animals are given vehicle (1% NaCarboxylnethylcellulose-0.25% Tween 80) or test compound (1 mg/kg, 3 mg/kg, 10 mg/kg, and 30 mg/kg) orally. One hour later, 10 μl LPS (10 μg) is administered intra-articularly into the right ankle of each rat, while the left ankle receives 10 μL of saline. After two hours, each ankle is lavaged with 100 μL of saline. The lavage is collected and stored at −80° C. • Group#1: Vehicle (1%/NaCMC-0.25% Tween 80, 1 mL, PO) • Group#2: Test compound (1 mg/kg, 1 mL, PO) • Group#3: Test compound (3 mg/kg, 1 mL, PO) • Group#4: Test compound (10 mg/kg, 1 mL, PO) • Group#5: Test compound (30 mg/kg, 1 mL, PO)
TNFα is measured with a commercially available ELISA kit (R&D, RTA00).

TNFα [2] = assay: Inhibition of TNFα in vitro (LPS/interferon-γ treated mouse peritoneal macrophages, Luminex); type: cell-based; conditions: Peritoneal macrophage, LPS 50 ng/mL and interferon-γ 10 U/mL, 18 hours, read-out: IC50, suppression of TNFα in vitro
Method: 1 mL thioglycolate broth (5.0 g yeast extract, 15.0 g casitone or trypticase, 5.0 g dextrose, 2.5 g sodium chloride, 0.75 g L-cystine, 0.5 g sodium thioglycolate, 1.0 mg resazurin, and 0.75 g agar in 1.0 L distilled water) are injected into the peritoneal cavity of Balb/C female mice. At day 4 or 5 post-injection the mice are sacrificed and then injected i.p. with 4 mL RPMI-1640 medium (BioWhittaker) and the peritoneal macrophages are withdrawn by syringe.
Mouse peritoneal macrophages are counted with a hemocytometer and adjusted to 5×10^5 cells/well in 96-well plates in RPMI-1640 medium with 10% fetal bovine serum. 200 μL/well is plated in 96-well plates and the cells allowed to settle and adhere to the bottom of the well for at least 3 hours. The test compound or standard p38 kinase inhibitor is pre-treated using a series of 8 concentrations for 1 hour at 37° C. […]
50 μL of cytokine detection antibody is added and incubated for 60 seconds at room temperature on a shaker protected from light at setting 6 and then for 30 minutes at setting 3.3 washes are performed with the Bio-Plex Wash Buffer. […] Standards and samples are read on a Luminex machine. These intensity readings are then converted to picogram/milliliter units based on a 12-point standard curve created in duplicate using a four-parameter logistic regression method (Bio-Plex Manager 2.0, Bio-Rad), and the IC50 calculated. […]

pMAPKAPK2 = assay: Inhibition of p-MAPKAPK2 in vitro (anisomycin-stimulated RAW 264.7 cells, ELISA); type: cell-based, murine; conditions: Mus musculus, RAW264.7, 2 hours compound, anisomicin 100 ug/ml 30 minutes, read-out: IC50, inhibition of pMAPKAPK2 enzyme production
Method: RAW 264.7 cells (a murine monocytic/macrophage line ATCC) are seeded at a density of 50,000 cells/well in 96-well plates with RPMI-1640 medium plus 10% fetal bovine serum (FBS) and allowed to settle and adhere to the bottom of the well for 48 hours. After reaching confluence, cells are treated for 2 hours with 10 serial dilutions of different compounds. A control compound is always included. After 2 hours, anisomicin (100 ug/ml) is added and cells are incubated for 30 minutes at 37° C. under a 5% CO2 atmosphere. Then, cells are fixed and treated with hydrogen peroxide in order to remove endogenous peroxidase. Finally, plates are blocked with FBS, washed, and an ELISA assay is carried out by using an antiphospho-MAPKAPK2 (Thr 334, Cell Signalling, Cat # 3041) antibody and ahP-Conjugated Secondary Antibody. This reaction is detected by using FEMTO (Pierce) which is an enhanced chemiluminiscent substrate ahP that results in rapid kinetic light output and high signal intensity. The compound exemplified in Example 12 is tested essentially as described above and is found to inhibit the pMAPKAPK2 enzyme production with an IC50 of 7 nM.

IC50 (TNFα [2]): < 9 nM | IC50 (pMAPKAPK2): 7 nM
Compound: CS(=O)(=O)O.Cc1ccc(-n2nc(C3(C)CC3)cc2NC(=O)Nc2cnc(OC3CCN(C(=O)C4(C)CC4)CC3)c3ccccc23)cc1 [Example 12, 1-{1-[1-(1-Methyl-cyclopropanecarbonyl)-piperidin-4-yloxy]-isoquinolin-4-yl}-3-[5-(1-methyl-cyclopropyl)-2-p-tolyl-2H-pyrazol-3-yl]-urea mesylate]
TMED50, inhibition of TNFα synthesis in the synovial lavage fluid (TNFα [1]): 2.54 mg/kg
